Laboratory results published in US20140094424A1, “MICROBICIDAL COMPOSITIONS AND METHODS OF PRODUCTION USE THEREOF” (priority 2011, published 2014).

Key:
[1] = system: Pseudomonas aeruginosa (AY); experiment: MBC (minimum bactericidal concentration) test in Wash NEXT reagent; format: cell-based
Protocol: (§1) The stock organisms were thawed and subbed prior to beginning the MBC test. Molds were subbed to SDA plates one week before, and the bacteria were subbed to TAT agar plates 24 hours prior to the start of the test. All plates were incubated at 32 degrees C.
Each bacterial organism was inoculated into 40 ml sterile saline in a centrifuge tube to create a density of MacFarland #1. Two serial dilutions of 1:100 were then made, resulting in 10^−2 and 10^−4 concentrations. Each dilution was vortexed before it was sampled, and sterile Eppendorf pipette tips were used to make each transfer. The 10^−4 dilution was spiral plated to yield the initial inoculum concentration.
(§2) MBC trays were set up with the prepared test reagent. Using a Matrix pipettor, 100 μl aliquots of reagent were distributed into the wells, diluting the amount of preservative from 100% to 10% increments, using unpreserved reagent as the diluent. In one row, 100% non-preserved reagent acted as a positive control and served as a benchmark for a full mat of growth. In well #12H, 100 μl unpreserved reagent was pipetted, and this well was not inoculated with organisms, as it served as the negative control. Once all of the trays were prepared, the prepared bacteria/mold suspensions were poured into the MBC inoculating trays. These were placed onto the reagent trays, and 0.01 ml inoculum was introduced into the 100 μl of reagent in each well.
(§3) This was done by dipping a sterile cotton swab into each well, and absorbing all of the liquid in the well. The swab was rolled onto a TAT agar plate ensuring that the entire swab touches the agar. Plates ware incubated at 32 degrees C. for 48 hours to 7 days, depending on the organism. Observations for growth were performed by a scoring matrix using + for a full mat, +/− for some growth, a numerical value for an actual colony count, and—for no growth.
(§4) Below are tables that contain the data obtained in Example 1. The MBC test is scored by (+) indicating a full grown mat of organisms, equivalent to the organisms in the unpreserved reagent. (+/−) indicates there is some kill evident disturbing that mat or bringing the quantities down to an almost countable level. An actual number is the actual number of colonies growing at that concentration of preservative. (−) indicates no growth found. The MBC trays were stored at room temperature for the entire test.
(§5) The materials and methods and analysis of the MBC test were the same as in Example 1.

[2] = system: Penicillium notatum-KMO (R); experiment: as above; format: cell-based; set-up: key to MBC test growth score: number = actual colony count; + full mat, − no growth
Protocol: as §1
For the molds, each organism was inoculated into 40 ml sterile saline in a centrifuge tube to create a density of MacFarland #5. Two serial dilutions of 1:100 were then made, resulting in 10^−2 and 10^−4 concentrations. Each dilution was vortexed before it was sampled, and sterile Eppendorf pipette tips were used to make each transfer. The 10^−4 dilution was spiral plated to yield the initial inoculum concentration.
as §2, §3, §4, §5

For gentamicin, the “MBC test growth score” value ([1]; 10% preservative, 8 hour) was “+/−”, the “MBC test growth score” value ([1]; 10% preservative, 24 hour) was “−” and the “MBC test growth score” value ([1]; 10% preservative, 48 hour) was “−”. For the same substance, the “MBC test growth score” value ([1]; 10% preservative, 72 hour) was “−”, the “MBC test growth score” value ([1]; 20% preservative, 8 hour) was “+/−” and the “MBC test growth score” value ([1]; 20% preservative, 24 hour) was “−”. The “MBC test growth score” value ([1]; 20% preservative, 48 hour) was “−”, the “MBC test growth score” value ([1]; 20% preservative, 72 hour) was “−” and the “MBC test growth score” value ([1]; 30% preservative, 8 hour) was “−”. The “MBC test growth score” value ([1]; 30% preservative, 24 hour) was “−”, the “MBC test growth score” value ([1]; 30% preservative, 48 hour) was “−” and the “MBC test growth score” value ([1]; 30% preservative, 72 hour) was “−”. The “MBC test growth score” value ([1]; 40% preservative, 8 hour) was “−”, the “MBC test growth score” value ([1]; 40% preservative, 24 hour) was “−” and the “MBC test growth score” value ([1]; 40% preservative, 48 hour) was “−”. For the same substance, the “MBC test growth score” value ([1]; 40% preservative, 72 hour) was “−”, the “MBC test growth score” value ([1]; 50% preservative, 8 hour) was “−” and the “MBC test growth score” value ([1]; 50% preservative, 24 hour) was “−”. For the same substance, the “MBC test growth score” value ([1]; 50% preservative, 48 hour) was “−”, the “MBC test growth score” value ([1]; 50% preservative, 72 hour) was “−” and the “MBC test growth score” value ([1]; 60% preservative, 8 hour) was “−”. For the same substance, the “MBC test growth score” value ([1]; 60% preservative, 24 hour) was “−”, the “MBC test growth score” value ([1]; 60% preservative, 48 hour) was “−” and the “MBC test growth score” value ([1]; 60% preservative, 72 hour) was “−”. The “MBC test growth score” value ([1]; 70% preservative, 8 hour) was “−”, the “MBC test growth score” value ([1]; 70% preservative, 24 hour) was “−” and the “MBC test growth score” value ([1]; 70% preservative, 48 hour) was “−”. For the same substance, the “MBC test growth score” value ([1]; 70% preservative, 72 hour) was “−”, the “MBC test growth score” value ([1]; 80% preservative, 8 hour) was “−” and the “MBC test growth score” value ([1]; 80% preservative, 24 hour) was “−”. The “MBC test growth score” value ([1]; 80% preservative, 48 hour) was “−”, the “MBC test growth score” value ([1]; 80% preservative, 72 hour) was “−” and the “MBC test growth score” value ([1]; 90% preservative, 8 hour) was “−”. The “MBC test growth score” value ([1]; 90% preservative, 24 hour) was “−”, the “MBC test growth score” value ([1]; 90% preservative, 48 hour) was “−” and the “MBC test growth score” value ([1]; 90% preservative, 72 hour) was “−”. The “MBC test growth score” value ([1]; 100% preservative, 8 hour) was “−”, the “MBC test growth score” value ([1]; 100% preservative, 24 hour) was “−” and the “MBC test growth score” value ([1]; 100% preservative, 48 hour) was “−”. For the same substance, the “MBC test growth score” value ([1]; 100% preservative, 72 hour) was “−”, the “MBC test growth score” value ([2]; 10% preservative, 8 hour) was “+” and the “MBC test growth score” value ([2]; 10% preservative, 24 hour) was “+”. For the same substance, the “MBC test growth score” value ([2]; 10% preservative, 48 hour) was “+/−”, the “MBC test growth score” value ([2]; 10% preservative, 72 hour) was “+/−” and the “MBC test growth score” value ([2]; 10% preservative, 7 day) was “+/−”. The “MBC test growth score” value ([2]; 10% preservative, 14 day) was “+/−”, the “MBC test growth score” value ([2]; 20% preservative, 8 hour) was “+” and the “MBC test growth score” value ([2]; 20% preservative, 24 hour) was “+”. The “MBC test growth score” value ([2]; 20% preservative, 48 hour) was “+/−”, the “MBC test growth score” value ([2]; 20% preservative, 72 hour) was “+/−” and the “MBC test growth score” value ([2]; 20% preservative, 7 day) was “+/−”. The “MBC test growth score” value ([2]; 20% preservative, 14 day) was “+/−”, the “MBC test growth score” value ([2]; 30% preservative, 8 hour) was “+” and the “MBC test growth score” value ([2]; 30% preservative, 24 hour) was “+”. The “MBC test growth score” value ([2]; 30% preservative, 48 hour) was “+/−”, the “MBC test growth score” value ([2]; 30% preservative, 72 hour) was “+/−” and the “MBC test growth score” value ([2]; 30% preservative, 7 day) was “+/−”. The “MBC test growth score” value ([2]; 30% preservative, 14 day) was “+/−”, the “MBC test growth score” value ([2]; 40% preservative, 8 hour) was “+” and the “MBC test growth score” value ([2]; 40% preservative, 24 hour) was “+”. For the same substance, the “MBC test growth score” value ([2]; 40% preservative, 48 hour) was “+/−”, the “MBC test growth score” value ([2]; 40% preservative, 72 hour) was “+/−” and the “MBC test growth score” value ([2]; 40% preservative, 7 day) was “+/−”. For the same substance, the “MBC test growth score” value ([2]; 40% preservative, 14 day) was 28, the “MBC test growth score” value ([2]; 50% preservative, 8 hour) was “+” and the “MBC test growth score” value ([2]; 50% preservative, 24 hour) was “+”. For the same substance, the “MBC test growth score” value ([2]; 50% preservative, 48 hour) was “+/−”, the “MBC test growth score” value ([2]; 50% preservative, 72 hour) was “+/−” and the “MBC test growth score” value ([2]; 50% preservative, 7 day) was “+/−”. For the same substance, the “MBC test growth score” value ([2]; 50% preservative, 14 day) was 25, the “MBC test growth score” value ([2]; 60% preservative, 8 hour) was “+” and the “MBC test growth score” value ([2]; 60% preservative, 24 hour) was “+”. For the same substance, the “MBC test growth score” value ([2]; 60% preservative, 48 hour) was “+/−”, the “MBC test growth score” value ([2]; 60% preservative, 72 hour) was “+/−” and the “MBC test growth score” value ([2]; 60% preservative, 7 day) was “+/−”. For the same substance, the “MBC test growth score” value ([2]; 60% preservative, 14 day) was 23, the “MBC test growth score” value ([2]; 70% preservative, 8 hour) was “+” and the “MBC test growth score” value ([2]; 70% preservative, 24 hour) was “+”. For the same substance, the “MBC test growth score” value ([2]; 70% preservative, 48 hour) was “+/−”, the “MBC test growth score” value ([2]; 70% preservative, 72 hour) was “+/−” and the “MBC test growth score” value ([2]; 70% preservative, 7 day) was 23. The “MBC test growth score” value ([2]; 70% preservative, 14 day) was 18, the “MBC test growth score” value ([2]; 80% preservative, 8 hour) was “+” and the “MBC test growth score” value ([2]; 80% preservative, 24 hour) was “+”. For the same substance, the “MBC test growth score” value ([2]; 80% preservative, 48 hour) was “+/−”, the “MBC test growth score” value ([2]; 80% preservative, 72 hour) was “+/−” and the “MBC test growth score” value ([2]; 80% preservative, 7 day) was 16. The “MBC test growth score” value ([2]; 80% preservative, 14 day) was 12, the “MBC test growth score” value ([2]; 90% preservative, 8 hour) was “+” and the “MBC test growth score” value ([2]; 90% preservative, 24 hour) was “+”. For the same substance, the “MBC test growth score” value ([2]; 90% preservative, 48 hour) was “+/−”, the “MBC test growth score” value ([2]; 90% preservative, 72 hour) was “+/−” and the “MBC test growth score” value ([2]; 90% preservative, 7 day) was 11. The “MBC test growth score” value ([2]; 90% preservative, 14 day) was 9, the “MBC test growth score” value ([2]; 100% preservative, 8 hour) was “+” and the “MBC test growth score” value ([2]; 100% preservative, 24 hour) was “+”. For the same substance, the “MBC test growth score” value ([2]; 100% preservative, 48 hour) was “+/−”, the “MBC test growth score” value ([2]; 100% preservative, 72 hour) was “+/−” and the “MBC test growth score” value ([2]; 100% preservative, 7 day) was 7. For the same substance, the “MBC test growth score” value ([2]; 100% preservative, 14 day) was 6.
